Experiments:
giant foxtail = test: Test B pre/postemergence giant foxtail; type: in vivo, Setaria faberii
Summary of the method: (§1)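 Herbicidal effect was estimated by eye on a ten-point control scale after plants spent twelve to sixteen days in a greenhouse following soil or foliar treatment. Foliar sprays targeted plants at one to four leaves; all doses were formulated in a non-phytotoxic solvent with surfactant.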

morningglory = test: Test B pre/postemergence morningglory; type: in vivo, Ipomoea hederacea
Summary of the method: as §1

pigweed = test: Test B pre/postemergence pigweed; type: in vivo, Amaranthus retroflexus
Summary of the method: as §1

[1] = Postemergence, Rate 250 g/ha, scale 0 to 10
[2] = Postemergence, Rate 500 g/ha, scale of 0 to 10 where 0 is no effect and 10 is complete control
[3] = Preemergence, Rate 62 g/ha, scale of 0 to 10 where 0 is no effect and 10 is complete control
[4] = Preemergence, Rate 125 g/ha, scale of 0 to 10 where 0 is no effect and 10 is complete control
[5] = Preemergence, Rate 250 g/ha, scale 0 to 10, 0 is no effect, 10 is complete control
[6] = Preemergence, Rate 500 g/ha, scale 0 to 10, 0 is no effect, 10 is complete control
[7] = Rate 62 g/ha, Postemergence, scale 0 to 10 (0 no effect, 10 complete control)
[8] = Rate 125 g/ha, Postemergence, scale 0 to 10, 0 is no effect, 10 is complete control
[9] = Postemergence, Rate 125 g/ha, scale of 0 to 10 where 0 is no effect and 10 is complete control
[10] = Postemergence, Rate 250 g/ha, scale 0 to 10, 0 no effect, 10 complete control
[11] = Postemergence, Rate 1000 g/ha, scale 0 to 10 (0 no effect, 10 complete control)
[12] = Preemergence, Rate 125 g/ha, scale 0 to 10 (0 no effect, 10 complete control)
[13] = Preemergence, Rate 250 g/ha, scale of 0 to 10 where 0 is no effect and 10 is complete control
[14] = Preemergence, Rate 500 g/ha, scale 0 (no effect) to 10 (complete control)
[15] = Rate 62 g/ha, Postemergence, scale of 0 to 10 where 0 is no effect and 10 is complete control
[16] = Rate 500 g/ha, Postemergence, scale 0 to 10, 0 no effect, 10 complete control
[17] = Rate 1000 g/ha, Preemergence, scale 0 to 10 (0 no effect, 10 complete control)
[18] = Preemergence, Rate 62 g/ha, scale 0 to 10 (0 no effect, 10 complete control)
[19] = Rate 125 g/ha, Postemergence, scale 0 to 10, 0 no effect, 10 complete control
[20] = Rate 500 g/ha, Postemergence, 0 to 10 scale (0 no effect, 10 complete control)
[21] = Postemergence, Rate 125 g/ha, scale 0 to 10, 0 is no effect, 10 is complete control
[22] = Preemergence, Rate 500 g/ha, scale of 0 to 10 where 0 is no effect and 10 is complete control
[23] = Rate 125 g/ha, Postemergence, scale of 0 to 10 where 0 is no effect and 10 is complete control
[24] = Rate 250 g/ha, Postemergence, scale of 0 to 10 where 0 is no effect and 10 is complete control

CC(C)N(C(=O)n1oc(=O)n(C(C)C(=O)N(C)C)c1=O)c1ccc(Cl)cc1 (stereo not drawn) [Compound 480]
5: Giant foxtail plant response rating (giant foxtail; [8])
4: Morningglory plant response rating (morningglory; [8])
0: Plant response rating, Morningglory (morningglory; [3]) | Plant response rating, Morningglory (morningglory; [4]) | Morningglory plant response rating (morningglory; [5]) | Morningglory plant response rating (morningglory; [6]) | Redroot pigweed plant response rating (pigweed; [7]) | Redroot pigweed plant response rating (pigweed; [8])
8: Giant foxtail plant response rating (giant foxtail; [1]) | Giant foxtail plant response rating (giant foxtail; [2]) | Redroot pigweed plant response rating (pigweed; [5])
10: Plant response rating, Giant foxtail (giant foxtail; [3]) | Plant response rating, Giant foxtail (giant foxtail; [4]) | Giant foxtail plant response rating (giant foxtail; [5]) | Giant foxtail plant response rating (giant foxtail; [6])
2: Morningglory plant response rating (morningglory; [7]) | Plant response rating, Redroot pigweed (pigweed; [3])
9: Redroot pigweed plant response rating (pigweed; [6])
7: Morningglory plant response rating (morningglory; [1])
1: Redroot pigweed plant response rating (pigweed; [1])
3: Giant foxtail plant response rating (giant foxtail; [7])

CC(C)N(C(=O)n1oc(=O)n(C2CCCCC2C(F)(F)F)c1=O)c1ccc(F)cc1 (stereo not drawn) [Compound 99]
7: Giant foxtail plant response rating (giant foxtail; [16]) | Redroot pigweed plant response rating (pigweed; [11]) | Redroot pigweed plant response rating (pigweed; [16])
9: Morningglory plant response rating (morningglory; [11])
2: Giant foxtail plant response rating (giant foxtail; [10]) | Giant foxtail plant response rating (giant foxtail; [11])
3: Morningglory plant response rating (morningglory; [9]) | Morningglory plant response rating (morningglory; [10]) | Plant response rating, Morningglory (morningglory; [17]) | Redroot pigweed plant response rating (pigweed; [15])
5: Morningglory plant response rating (morningglory; [16]) | Plant response rating, Redroot pigweed (pigweed; Rate 250 g/ha, Postemergence, scale 0 to 10, 0 is no effect, 10 is complete control)
10: Plant response rating, Giant foxtail (giant foxtail; [12]) | Plant response rating, Giant foxtail (giant foxtail; [13]) | Giant foxtail plant response rating (giant foxtail; [14]) | Plant response rating, Giant foxtail (giant foxtail; [17]) | Redroot pigweed plant response rating (pigweed; [14]) | Plant response rating, Redroot pigweed (pigweed; [17])
0: Giant foxtail plant response rating (giant foxtail; [9]) | Giant foxtail plant response rating (giant foxtail; [15]) | Morningglory plant response rating (morningglory; [18]) | Plant response rating, Morningglory (morningglory; [12]) | Plant response rating, Morningglory (morningglory; [13]) | Morningglory plant response rating (morningglory; [14]) | Redroot pigweed plant response rating (pigweed; [18]) | Plant response rating, Redroot pigweed (pigweed; [12])
1: Morningglory plant response rating (morningglory; [15])
4: Redroot pigweed plant response rating (pigweed; [9]) | Plant response rating, Redroot pigweed (pigweed; [13])

CCN(CC)C(=O)n1oc(=O)n(-c2ccc(OC)cc2)c1=O [Compound 1]
8: Giant foxtail plant response rating (giant foxtail; [11]) | Plant response rating, Giant foxtail (giant foxtail; [13]) | Giant foxtail plant response rating (giant foxtail; [20]) | Redroot pigweed plant response rating (pigweed; [20])
7: Plant response rating, Giant foxtail (giant foxtail; [12])
0: Giant foxtail plant response rating (giant foxtail; [19]) | Morningglory plant response rating (morningglory; [10]) | Morningglory plant response rating (morningglory; [11]) | Plant response rating, Morningglory (morningglory; [12]) | Plant response rating, Morningglory (morningglory; [13]) | Morningglory plant response rating (morningglory; [14]) | Morningglory plant response rating (morningglory; [19]) | Morningglory plant response rating (morningglory; [20]) | Plant response rating, Morningglory (morningglory; [17]) | Plant response rating, Redroot pigweed (pigweed; [12]) | Plant response rating, Redroot pigweed (pigweed; [13])
4: Redroot pigweed plant response rating (pigweed; [10])
9: Giant foxtail plant response rating (giant foxtail; [14]) | Plant response rating, Giant foxtail (giant foxtail; [17]) | Redroot pigweed plant response rating (pigweed; [11])
2: Giant foxtail plant response rating (giant foxtail; [10]) | Redroot pigweed plant response rating (pigweed; [14]) | Redroot pigweed plant response rating (pigweed; [19]) | Plant response rating, Redroot pigweed (pigweed; [17])

CC(C)N(C(=O)n1oc(=O)n(CCC[Si](C)(C)C)c1=O)c1ccc(F)cc1 [Compound 461]
7: Morningglory plant response rating (morningglory; [1]) | Morningglory plant response rating (morningglory; [8])
3: Giant foxtail plant response rating (giant foxtail; [6]) | Morningglory plant response rating (morningglory; [7])
0: Giant foxtail plant response rating (giant foxtail; [1]) | Giant foxtail plant response rating (giant foxtail; [2]) | Plant response rating, Giant foxtail (giant foxtail; [3]) | Plant response rating, Giant foxtail (giant foxtail; [4]) | Giant foxtail plant response rating (giant foxtail; [5]) | Giant foxtail plant response rating (giant foxtail; [7]) | Giant foxtail plant response rating (giant foxtail; [8]) | Plant response rating, Morningglory (morningglory; [3]) | Plant response rating, Morningglory (morningglory; [4]) | Morningglory plant response rating (morningglory; [5]) | Morningglory plant response rating (morningglory; [6]) | Redroot pigweed plant response rating (pigweed; [1]) | Plant response rating, Redroot pigweed (pigweed; [3]) | Plant response rating, Redroot pigweed (pigweed; [4]) | Redroot pigweed plant response rating (pigweed; [5]) | Redroot pigweed plant response rating (pigweed; [6]) | Redroot pigweed plant response rating (pigweed; [7]) | Redroot pigweed plant response rating (pigweed; [8])

Cc1c(-n2c(=O)on(C(=O)N(c3ccc(F)cc3F)C(C)C)c2=O)ccc2ccccc12 [Compound 337]
0: Plant response rating, Giant foxtail (giant foxtail; [21]) | Giant foxtail plant response rating (giant foxtail; [3]) | Giant foxtail plant response rating (0 to 10 scale) (giant foxtail; Preemergence, Rate 125 g/ha) | Giant foxtail plant response rating (giant foxtail; [7]) | Plant response rating, Giant foxtail (giant foxtail; [16]) | Plant response rating, Morningglory (morningglory; [21]) | Morningglory plant response rating (morningglory; [3]) | Morningglory plant response rating (0 to 10 scale) (morningglory; Preemergence, Rate 125 g/ha) | Morningglory plant response rating (morningglory; [13]) | Morningglory plant response rating (morningglory; [22]) | Morningglory plant response rating (morningglory; [7]) | Plant response rating, Morningglory (morningglory; [16]) | Plant response rating, Redroot pigweed (pigweed; [21]) | Redroot pigweed plant response rating (pigweed; [3]) | Redroot pigweed plant response rating (0 to 10 scale) (pigweed; Preemergence, Rate 125 g/ha) | Redroot pigweed plant response rating (pigweed; [13]) | Redroot pigweed plant response rating (pigweed; [22]) | Redroot pigweed plant response rating (pigweed; [7]) | Plant response rating, Redroot pigweed (pigweed; [16])
2: Giant foxtail plant response rating (giant foxtail; [13])
9: Giant foxtail plant response rating (giant foxtail; [22])

CC(C)N(C(=O)n1oc(=O)n(CCCN(C)C)c1=O)c1ccc(F)cc1 [Compound 323]
3: Plant response rating, Morningglory (morningglory; [16])
0: Giant foxtail plant response rating (giant foxtail; [3]) | Giant foxtail plant response rating (0 to 10 scale) (giant foxtail; Preemergence, Rate 125 g/ha) | Giant foxtail plant response rating (giant foxtail; [13]) | Giant foxtail plant response rating (giant foxtail; [7]) | Giant foxtail plant response rating (giant foxtail; [23]) | Plant response rating, Giant foxtail (giant foxtail; [24]) | Plant response rating, Giant foxtail (giant foxtail; [16]) | Morningglory plant response rating (morningglory; [3]) | Morningglory plant response rating (0 to 10 scale) (morningglory; Preemergence, Rate 125 g/ha) | Morningglory plant response rating (morningglory; [13]) | Morningglory plant response rating (morningglory; [22]) | Morningglory plant response rating (morningglory; [7]) | Morningglory plant response rating (morningglory; [23]) | Redroot pigweed plant response rating (pigweed; [3]) | Redroot pigweed plant response rating (0 to 10 scale) (pigweed; Preemergence, Rate 125 g/ha) | Redroot pigweed plant response rating (pigweed; [13]) | Redroot pigweed plant response rating (pigweed; [22]) | Redroot pigweed plant response rating (pigweed; [7]) | Redroot pigweed plant response rating (pigweed; [23]) | Plant response rating, Redroot pigweed (pigweed; [24]) | Plant response rating, Redroot pigweed (pigweed; [16])
2: Giant foxtail plant response rating (giant foxtail; [22]) | Plant response rating, Morningglory (morningglory; [24])
